# According to patent US20070154393A1, “Bioassay for volatile low molecular weight insecticides and methods of use” (priority 2005, published 2007):
# Counter-ions that a name gives are not always drawn. Like-named read-outs stand apart in the source and are kept apart here.
# Tests used:
# [1] = system: insecticide-susceptible Drosophila melanogaster (Canton-S strain); format: in vivo
# Description: The insecticide-susceptible Canton-S strain of Drosophila was obtained from the Bloomington Drosophila stock center (Indiana University, Bloomington, Ind.), and used exclusively in all studies. Flies were reared in 100-ml vials capped with acetate plugs (Fisher Scientific; Suwannee, Ga.) on a JAZZ-MIX diet (Fisher) prepared with a 2:1 ratio of water to apple juice. Flies were reared on a 12:12 photocycle at 24° C. and ambient relative humidity. Mixed-sex adults, less than 1-wk old, were used in bioassays.
# Flies were briefly anesthetized in rearing vials with a pulse of CO2 and transferred to a CO2 flowbed (Genesee Scientific; San Diego, Calif.). Using a camel hair brush and a 5×5 cm sheet of rice paper, ten flies were placed into 7.0 ml dram vials. Prior to adding flies, each vial received a 0.5 cm^3 block of rearing diet that had been sufficiently dried on a paper towel to remove excessive moisture. The vials were then capped with open-top septum caps (Fisher) that were covered with fine mesh. The mesh was applied to the septum caps in advance using hot glue; it prevented fly escape but readily permitted gas exchange. The flies were allowed 1-hr to recover from the CO2 anesthesia. After one hour, single vials with flies were placed into 0.5 L glass jars, along with a filter paper tent (see FIG. 1). In a fume hood, filter paper tents were treated with insecticide dilutions or acetone for controls. The jars were then rapidly closed tightly with a metal lid. After 24 hours of exposure, mortality was scored with the aid of a magnifying glass.
# All test compounds and solvents were >99% purity, and were purchased from Sigma-Aldrich Chemical (Milwaukee, Wis.). See Table 1 for a listing of the test compounds and their structures. Insecticide stock solutions were prepared at a standard concentration of 100 μg/μl in analytical grade acetone. For liquid insecticidal compounds, density in mg/μl was used to calculate weight on a per-volume basis. Stock solutions were held at −20° C. in sealed amber vials. In bioassay jars, filter paper tents were treated with stock volumes ranging from 2 to 20 μl, depending on the inherent toxicity of the test compound. These volumes of insecticide stock provided test concentrations of 200 to 2000 μg insecticide per replicate jar. A range of 4-5 concentrations plus a control were tested for each insecticide, and each range was repeated five times over at least three days. Controls received a volume of acetone identical to the highest insecticide volume that was tested (i.e., 10 μl for menthofuran; 20 μl for all other insecticides). Between uses, bioassay jars and lids were washed in a dishwasher, then baked 12-16 hr at 90° C. in a drying oven.
# Probit and regression analyses were performed using the PROC PROBIT and PROC REG procedures, respectively. […] If control mortality ever exceeded 10% in a given replicate, that replicate was discarded.
# (§1) Four Drosophila strains were used, all obtained from the Bloomington Drosophila Stock Center (Indiana University; Bloomington, Ind.). The Canton-S strain was used as the insecticide-susceptible standard. The Hikone-R strain is metabolically-resistant with elevated cytochrome P450 levels (Waters et al., 1984; Sundseth et al., 1989; Le Goff et al., 2003; Festucci-Buselli et al., 2005). Hikone-R is resistant to a number of insecticides, including malathion, DDT and neonicotinoids (Sundseth et al., 1989; Daborn et al., 2001). Two resistant neurological-mutant strains were also tested. […] Flies were reared in 100-ml vials capped with acetate plugs (Fisher Scientific; Suwanee, Ga.) on a commercial diet (JAZZ-MIX; Fisher Scientific). Flies were reared on a 12:12 photocycle at 24° C. and 60% relative humidity. Mixed-sex adults, less than 1-wk old, were used in bioassays.
# [2] = system: metabolically-resistant Hikone-R strain of Drosophila (elevated cytochrome P450); format: in vivo
# Description: (§2) Four Drosophila strains were used, all obtained from the Bloomington Drosophila Stock Center (Indiana University; Bloomington, Ind.). The Canton-S strain was used as the insecticide-susceptible standard. […] Two resistant neurological-mutant strains were also tested. […] Flies were reared in 100-ml vials capped with acetate plugs (Fisher Scientific; Suwanee, Ga.) on a commercial diet (JAZZ-MIX; Fisher Scientific). […] Mixed-sex adults, less than 1-wk old, were used in bioassays.
# (§3) All volatile insecticide stocks were prepared at 100 μg/μl in analytical grade acetone. Rather than weigh the highly volatile liquid insecticides (i.e., all compounds except benzothiophene), weight was determined based on the density-volume relationship of each compound. […] The insecticide synergists PBO (piperonyl butoxide) and DEF (SSS-tributyl-phosphoro-trithioate) were obtained from Fluka Chemical Co. (Basel, Switzerland) and Mobay Chemical Co. (Kansas City, Mo.). […] Synergist stocks were prepared at 100 μg/ml in analytical grade acetone.
# (§4) Briefly, bioassays took place in 0.5-l glass jars with metal lids. Mixed-sex flies were isolated from lab colonies and placed in 4-ml dram vials in groups of ten, along with a dried piece of laboratory diet. The dram vials were capped with open-top septum caps that were covered with fine mesh (held in place by non-toxic glue). For bioassays, the assembled dram vials were placed into the 0.5-l jars along with a folded filter paper “tent” (Whatman #1; Vineland, N.J.). The filter paper was treated with either an insecticide dilution or acetone, the jar was sealed with the metal lid, and the bioassay proceeded for 24-hr at room temperature. Mortality was scored based on a complete lack of movement by the flies. Four concentrations plus an acetone control were tested for all insecticides. Between five and ten replicates were performed for each concentration range on each strain-insecticide combination. Synergist bioassays were performed with a slight modification. Synergist stocks were applied to dram vials at 100 μl per vial to provide assay concentrations of 10 μg per vial. […] After treatment, vials were held at an angle in a fume hood and rotated ¼-turn each minute until the acetone evaporated. Flies and diet were added as above and held for 1-hr. Assays were initiated, run, and scored as above.
# (§5) Probit analysis was performed using PROC PROBIT in the SAS software package (SAS Institute; Cary, N.C.). If control mortality ever exceeded 10% in a given replicate, that replicate was discarded.
# [3] = system: Rd1 (Rdl-R) strain of Drosophila (GABA-gated chloride channel point mutation); format: in vivo, Drosophila melanogaster; details: for LC50: in vivo; for response of Rd1 relative to Canton-S (LC50 ratio, FIG. 7A), in words: significance at p<0.05, method of Robertson and Preisler
# Text: as §1
# All experimental materials were purchased from Sigma-Aldrich-Fluka (Milwaukee, Wis.) and were of 99% purity or greater. […] All volatile insecticide stocks were prepared at 100 μg/μl in analytical grade acetone. Rather than weigh the highly volatile liquid insecticides (i.e., all compounds except benzothiophene), weight was determined based on the density-volume relationship of each compound. Four serial dilutions were prepared and tested for each insecticide as described previously (Scharf et al., 2006). The insecticide synergists PBO (piperonyl butoxide) and DEF (SSS-tributyl-phosphoro-trithioate) were obtained from Fluka Chemical Co. (Basel, Switzerland) and Mobay Chemical Co. (Kansas City, Mo.). Both synergists were >95% purity. Synergist stocks were prepared at 100 μg/ml in analytical grade acetone.
# Volatility bioassays were conducted exactly as described in a previous report (Scharf et al., 2006). Briefly, bioassays took place in 0.5-l glass jars with metal lids. Mixed-sex flies were isolated from lab colonies and placed in 4-ml dram vials in groups of ten, along with a dried piece of laboratory diet. The dram vials were capped with open-top septum caps that were covered with fine mesh (held in place by non-toxic glue). For bioassays, the assembled dram vials were placed into the 0.5-l jars along with a folded filter paper “tent” (Whatman #1; Vineland, N.J.). The filter paper was treated with either an insecticide dilution or acetone, the jar was sealed with the metal lid, and the bioassay proceeded for 24-hr at room temperature. Mortality was scored based on a complete lack of movement by the flies. Four concentrations plus an acetone control were tested for all insecticides. Between five and ten replicates were performed for each concentration range on each strain-insecticide combination. Synergist bioassays were performed with a slight modification. Synergist stocks were applied to dram vials at 100 μl per vial to provide assay concentrations of 10 μg per vial. […] After treatment, vials were held at an angle in a fume hood and rotated ¼-turn each minute until the acetone evaporated. Flies and diet were added as above and held for 1-hr. Assays were initiated, run, and scored as above.
# Probit analysis was performed using PROC PROBIT in the SAS software package (SAS Institute; Cary, N.C.). If control mortality ever exceeded 10% in a given replicate, that replicate was discarded. Toxicity and synergist ratios at LC50 were compared statistically using the calculation described by Robertson and Preisler (1992). Using this procedure, ratios with 95% confidence intervals were calculated using a spreadsheet-based program. With this calculation, if confidence intervals include 1.0 then ratios are considered non-significant (p>0.05; Robertson and Preisler, 1992).
# [4] = system: para-ts1 (para-R) strain of Drosophila (sodium channel point mutation); format: in vivo; details: significance at p<0.05, method of Robertson and Preisler
# Description: as §2, §3, §4, §5
# [5] = solvent carriers tested alone under optimized bioassay conditions
# [6] = significance at p<0.05, method of Robertson and Preisler
compound,measurement,setting,value
"CCCOC(C)=O [PROPYL acetate, propyl acetate]",LC50 (95% CL),[1]; in vivo,2056.0 (ND) μg/jar
"CCCC(=O)OCC [ETHYL butyrate, ethyl butyrate]",LC50 (95% CL),[1]; in vivo,2034.0 (ND) μg/jar
"CCC(=O)OC [METHYL propionate, methyl propionate]",LC50 (95% CL),[1]; in vivo,2391.0 (2076.0 − 3433.0) μg/jar
"O=CO [Formic Acid, reference compound]",Slope ± Std. Error (probit mortality line),"[2]; Table 2, Hikone-R, 24 hr",3.29 ± 1.02
CC(C)O [isopropanol],mortality elicited by solvent carrier,[1]; [5],100%
"CCCC(=O)OC [METHYL butyrate, methyl butyrate]",LC50 (95% CL),[1]; in vivo,2026.0 (1872.0 − 2314.0) μg/jar
"CCCOC(=O)CCC [PROPYL butyrate, propyl butyrate]",LC50 (95% CL),[1]; in vivo,2035.0 (ND) μg/jar
"CCOC(=O)CC [ETHYL propionate, ethyl propionate]",LC50 (95% CL),[1]; in vivo,3395.0 (2439.0 − 9039.0) μg/jar
C[S+](C)[O-] [DMSO],mortality elicited by solvent carrier,[1]; [5],No mortality
methyl acetate,Slope ± Std. Error (best-fit probit mortality line),"[1]; Table 1, Canton-S, 24 hr exposure, probit analysis",2.86 ± 0.91
same,LC50 (95% CL),[1]; in vivo,2268.0 (ND) μg/jar
"CCCCC(=O)OCC [ETHYL valerate, ethyl valerate]",LC50 (95% CL),[1]; in vivo,2092.0 (1837.0 − 2670.0) μg/jar
"CC(=O)OC(C)C [ISO-PROPYL acetate, iso-propyl acetate]",LC50 (95% CL),[1]; in vivo,1611.0 (1458.0 − 1782.0) μg/jar
COCCO [methyl cellosolve],mortality elicited by solvent carrier,[1]; [5],No mortality
"CCCCCCCOC=O [Heptyl Formate, heptyl formate]",LC50,[3],1656.6 μg insecticide per 0.5 liter of headspace
same,"response of Rd1 relative to Canton-S (LC50 ratio, FIG. 7A), in words",[3],non-significant tolerance
same,LC50,[2]; in vivo,1483.0 μg insecticide per 0.5 liter of headspace
same,"response of Hikone-R relative to Canton-S (LC50 ratio Hikone÷Canton, FIG. 5), in words",[2]; in vivo,non-significant tolerance
"CCCCCOC(C)=O [PENTYL acetate, pentyl acetate]",LC50 (95% CL),[1]; in vivo,1792.0 (1658.0 − 1987.0) μg/jar
"CCCCOC(C)=O [n-BUTYL acetate, n-butyl acetate]",LC50 (95% CL),[1]; in vivo,1821.0 (1730.0 − 1930.0) μg/jar
"CC(=O)OC(C)(C)C [t-BUTYL acetate, t-butyl acetate]",LC50 (95% CL),[1]; in vivo,2134.0 (1943.0 − 2598.0) μg/jar
"CCCCOC=O [Butyl Formate, butyl formate]",LC50,[3],1246.0 μg insecticide per 0.5 liter of headspace
same,"response of Rd1 relative to Canton-S (LC50 ratio, FIG. 7A), in words",[3],non-significant tolerance
same,"response of para-ts1 relative to Canton-S (LC50 ratio, FIG. 7B), in words",[4],non-significant tolerance
same,LC50,[2]; in vivo,1570.0 μg insecticide per 0.5 liter of headspace
same,Slope ± Std. Error (probit mortality line),[2]; in vivo,8.82 ± 2.00
CCO [ethanol],mortality elicited by solvent carrier,[1]; in vivo,No mortality
"COP(=O)(OC)OC=C(Cl)Cl [Dichlorvos (DDVP), Dichlorvos, reference compound]",Slope ± Std. Error (probit mortality line),"[2]; Table 2, Hikone-R, 24 hr",4.64 ± 0.59
"O=COCCOC=O [EGDF, ethylene glycol di-formate]",knockdown,"[1]; Canton-S, by 2-hr, lasting through 24-hr, in all bioassay replicates",100%
same,Slope ± Std. Error (probit mortality line),"[2]; Table 2, Hikone-R, 24 hr",5.02 ± 2.41
same,Slope ± Std. Error (probit mortality line),"[2]; Table 3, Hikone-R, no synergist, 24 hr",5.02 ± 2.41
same,"response of Hikone-R relative to Canton-S (LC50 ratio Hikone÷Canton, FIG. 5), in words",[2]; [6],significant resistance
"CCCCCCOC(C)=O [HEXYL acetate, hexyl acetate]",LC50 (95% CL),[1]; in vivo,1666.0 (1582.0 − 1755.0) μg/jar
"CCOC(C)=O [ETHYL acetate, ethyl acetate]",LC50 (95% CL),[1]; in vivo,3530.0 (2488.0 − 12723.0) μg/jar
"CCCCC(=O)OC [METHYL valerate, methyl valerate]",LC50 (95% CL),[1]; in vivo,2209.0 (1897.0 − 2997.0) μg/jar
"CCCCOC(=O)CC [BUTYL propionate, butyl propionate]",LC50 (95% CL),[1]; in vivo,2126.0 (1894.0 − 2670.0) μg/jar
CO [methanol],mortality elicited by solvent carrier,[1]; [5],No mortality
"CN=C=S [Methylisothiocyanate (MITC), Methylisothiocyanate, reference compound]",Slope ± Std. Error (probit mortality line),"[2]; Table 2, Hikone-R, 24 hr",4.30 ± 0.62
same,"response of Hikone-R relative to Canton-S (LC50 ratio Hikone÷Canton, FIG. 5), in words",[2]; [6],significantly enhanced susceptibility
"CCCOC(=O)CC [PROPYL propionate, propyl propionate]",LC50 (95% CL),[1]; in vivo,1931.0 (ND) μg/jar
"c1ccc2[nH]ccc2c1 [INDOLE, indole]",LC50 (95% CL),[1]; in vivo,2769.0 (2137.0 − 7873.0) μg/jar
CCCCCC [hexane],mortality elicited by solvent carrier,[1]; in vivo,No mortality
Cc1oc2ccccc2c1C,LC50 (95% CL),[1]; in vivo,1960.0 (1543.0 − 2452.0) μg/jar
CC(C)=O [acetone],mortality elicited by solvent carrier,[1]; [5],No mortality
